Measurements: ChEMBL document CHEMBL1135309, “Tryptophanyl phosphoramidates as prodrugs of synadenol and its E-isomer: synthesis and biological activity” (2002)

Assays:
[1] = Ratio of antiviral activity of HSV-1 to the ratio of cytotoxicity of Vero (EC50/CC50) against cytopathic effect inhibition assay in CEM cells; 28/>100; format: functional
[2] = Ratio of antiviral activity of HSV-2 to the ratio of cytotoxicity of HFF (EC50/CC50) against cytopathic effect inhibition assay; 80/433; format: functional
[3] = Ratio of antiviral activity of HSV-1 to the ratio of cytotoxicity of BSC-1 (EC50/CC50) against KB cells; 26/78; format: functional
[4] = Ratio of antiviral activity of HSV-1 to the ratio of cytotoxicity of HFF (EC50/CC50) against cytopathic effect inhibition assay; >92/433; format: functional
[5] = Ratio of antiviral activity of VZV to the ratio of cytotoxicity of HFF (EC50/CC50) against cytopathic effect inhibition assay; 2.5/368; format: functional
[6] = Ratio of antiviral activity of HSV-2 to the ratio of cytotoxicity of Vero (EC50/CC50) against cytopathic effect inhibition assay in CEM cells; 59/>100; format: functional
[7] = Antiviral activity against HCMV (Towne) in HFF cells by plaque reduction assay
[8] = Antiviral activity against HCMV (AD 169) in HFF cells against cytopathic effect inhibition assay; 1.0/303
[9] = Antiviral activity against HIV-1 in MT-2 cells (EC50) against cytopathic effect inhibition assay; 0.75/32
[10] = Antiviral activity against HBV in 2.2.15 cells (EC50) in HBV-DNA inhibition assay against CEM cells; 2/>100
[11] = Antiviral activity against EBV in Daudi cells (EC50) against viral capsid antigen immunofluorescence assay (VCA-IF); 3.2/368
[12] = Antitumor activity against normal cells (fibroblasts) at 500 ug/disk in disk diffusion assay; Value ranges from 0-100; format: functional
[13] = test system: HCT-15; test: Antitumor activity against human HCT15 to multiple drug-resistant human colon tumor at 500 ug/disk in disk diffusion assay; Value ranges from 300-400; format: functional
[14] = test system: L1210; test: Antitumor activity against leukemia L1210 at 500 ug/disk in disk diffusion assay; format: functional, Mus musculus
[15] = Ratio of antiviral activity of HSV-1 to the ratio of cytotoxicity of Vero (EC50/CC50) against cytopathic effect inhibition assay in CEM cells; 31/91; format: functional
[16] = Ratio of antiviral activity of HSV-2 to the ratio of cytotoxicity of HFF (EC50/CC50) against cytopathic effect inhibition assay; >184/>184; format: functional
[17] = Ratio of antiviral activity of HIV-1to the ratio of cytotoxicity of MT-2 (EC50/CC50) against cytopathic effect inhibition assay; 1/10; format: functional
[18] = Ratio of antiviral activity of HSV-1 to the ratio of cytotoxicity of BSC-1 (EC50/CC50) against KB cells; 15/>100; format: functional
[19] = Ratio of antiviral activity of HSV-1 to the ratio of cytotoxicity of HFF (EC50/CC50) against cytopathic effect inhibition assay; >184/>184; format: functional
[20] = Ratio of antiviral activity of HSV-2 to the ratio of cytotoxicity of Vero (EC50/CC50) against cytopathic effect inhibition assay in CEM cells; 40/91; format: functional
[21] = Ratio of antiviral activity of VZV to the ratio of cytotoxicity of HFF (EC50/CC50) against cytopathic effect inhibition assay; 5.0/111; format: functional
[22] = Antiviral activity of HCMV (Towne)in HFF cells by plaque reduction assay
[23] = Antiviral activity against HBV in 2.2.15 cells in HBV-DNA inhibition assay
[24] = Antiviral activity against HCMV (AD 169) in HFF cells assessed by cytopathic effect inhibition assay; 5.2/90
[25] = Antiviral activity against EBV in Daudi cells against viral capsid antigen immunofluorescence assay (VCA-IF)
[26] = test system: HCT-15; test: Antitumor activity against human HCT15 to multiple drug-resistant human colon tumor at 500 ug/disk in disk diffusion assay; format: functional
[27] = Ratio of antiviral activity of HSV-1 to the ratio of cytotoxicity of Vero (EC50/CC50) against cytopathic effect inhibition assay in CEM cells; >1/<10; format: functional
[28] = Ratio of antiviral activity of HSV-2 to the ratio of cytotoxicity of HFF (EC50/CC50) against cytopathic effect inhibition assay; 1.1/18; format: functional
[29] = Ratio of antiviral activity of HSV-1 to the ratio of cytotoxicity of BSC-1 (EC50/CC50) against KB cells; 2.5/0.5; format: functional
[30] = Ratio of antiviral activity of HSV-1 to the ratio of cytotoxicity of HFF (EC50/CC50) against cytopathic effect inhibition assay; <0.07/18; format: functional
[31] = Ratio of antiviral activity of VZV to the ratio of cytotoxicity of HFF (EC50/CC50) against cytopathic effect inhibition assay; 7.6/101; format: functional
[32] = Ratio of antiviral activity of HBV to the ratio of cytotoxicity of 2.2.15 (EC50/CC50) in HBV-DNA inhibition assay against CEM cells; 0.01/0.3; format: functional, CCRF-CEM
[33] = Antiviral activity against HCMV (Towne) in HFF cells by plaque reduction assay; remark: listed apart in the source
[34] = Antiviral activity against HCMV (AD 169) in HFF cells (EC50) against cytopathic effect inhibition assay
[35] = Antiviral activity against HIV-1 in MT-2 cells (EC50) against cytopathic effect inhibition assay; 0.003/0.24
[36] = Antiviral activity against EBV in Daudi cells (EC50) against viral capsid antigen immunofluorescence assay (VCA-IF); 1.0/>108

Nc1ncnc2c1ncn2/C=C1/CC1CO (stereo unspecified)
Ratio [1]: 28
Ratio [2]: 80
Ratio [3]: 26
Ratio [4]: >92
Ratio [5]: 2.5
Ratio [6]: 59
EC50 [7]: 2100 nM
EC50 [8]: 1000 nM
EC50 [9]: 750 nM
EC50 [10]: 2000 nM
EC50 [11]: 3200 nM

COC(=O)C(Cc1c[nH]c2ccccc12)NP(=O)(O)OCC1C/C1=C/n1cnc2c(N)ncnc21 (stereo unspecified)
Activity [12]: 0 zone units
Activity [13]: 300 zone units
Activity [14]: 0 zone units
Ratio [15]: 31
Ratio [16]: >184
Ratio [17]: 1
Ratio [18]: 15
Ratio [19]: >184
Ratio [20]: 40
Ratio [21]: 5
EC50 [22]: 1500 nM
EC50 [23]: 490 nM
EC50 [24]: 5200 nM
EC50 [25]: > 18000 nM

COC(=O)C(C)NP(=O)(OCC1C/C1=C/n1cnc2c(N)ncnc21)Oc1ccccc1 (stereo unspecified)
Activity [26]: 200 ug disk-1
Ratio [27]: >1
Ratio [28]: 1.1
Ratio [29]: 2.5
Ratio [30]: <0.07
Ratio [31]: 7.6
Ratio [32]: 0.01
EC50 [33]: 140 nM
EC50 [34]: 1300 nM
EC50 [35]: 3 nM
EC50 [36]: 1000 nM
